Assay results: patent US10398676B2, “Use of alpha-hydroxy carbonyl compounds as reducing agents” (Morvus Technology Ltd, priority 2005, dated 2019)
Marks after values point to notes of the source that are not given here.

How the values were obtained:
[1] = Reduction of NADP+ by α-hydroxycarbonyl compounds (Example 7); assay type: physicochemical; conditions: 1 mM test compound, 200 μM NADP+, pH 10 (1 mM NaHCO3 buffer), over 2 minutes
Protocol: A 10 μL aliquot of test compound (at a concentration of 100 mM in water) is added to a 200 μM NADP^+ aqueous solution (approximately 990 μL), buffered to pH 10 (1 mM NaHCO3 buffer). The final concentration of the test compound in the assay solution was 1 mM. Reduction of NADP^+ was then monitored by measuring the increase, over the course of 2 minutes, of absorption at 350 nm on a spectrophotometer. Initial rates were recorded as the change in A350 per minute.

[2] = Reduction of tretazicar by α-hydroxycarbonyl compounds, HPLC initial rate (Example 8); assay type: physicochemical; conditions: 10 mM test compound, 100 μM tretazicar, 0.1 M sodium bicarbonate buffer; for Initial Rate of tretazicar reduction, pH 9: pH 9, 37° C.; for Initial Rate of tretazicar reduction, pH 10: pH 10, 37° C.
Protocol: (§1) The assay was started by addition of 100 μL of 100 mM test compound (compound of formula I) in water to a mixture of tretazicar (100 μM) in 0.1 M sodium bicarbonate buffer, pH 9 or pH 10, to give a final volume of 1 mL. The mixture was incubated at 37° C. and aliquots (10 μL) were taken every 6 min and assayed immediately by HPLC [Partisil 10 SCX (4.2×150 mm) (Whatman, Maidstone, Kent, U.K.] eluted isocratically with 0.13 M sodium phosphate (pH 5) at 1.5 ml/min). The concentration of tretazicar was determined in each sample by reference of the corresponding peak area with an external standard, quantified by absorbance at 325 nm. Initial rates were calculated by curve fitting (FigP, Biosoft, Cambridge, U.K.). Reduction products were identified by retention time relative to an authentic standard.

[3] = DHA reduction of prodrugs and nitro compounds, HPLC initial rate (Examples 5 and 6); assay type: physicochemical; conditions: 100 μM compound, 10 mM DHA, 37° C.
Protocol: The assay mixture contained the compound under test (100 μM) and DHA (10 mM) in a final reaction volume of 1 mL of sodium phosphate buffer (of the required pH). The reaction was started by addition of DHA and the mixture is incubated at 37° C.

[4] = system: Chinese Hamster V79 cells; test: Survival of V79 cells, colony forming ability (FIG. 7); assay type: cell-based; conditions: 10 or 100 μM E09 with 10 mM DHA, 2 hours, pH 7.5, 37° C.
Protocol: The survival of V79 cells was determined using the following method: • Volumes (1 mL, 2×10^5 cells/mL) of V79 cells in 10 mM phosphate buffer (pH 7.5) containing 140 mM NaCl were incubated at 37° C. and then reagents (as indicated above, at the concentrations stipulated) were added (except for the control experiment). After a 2 hour incubation, the cells were harvested by centrifugation, diluted out serially (4×10-fold) and the cells plated into growth medium and assayed for their colony forming ability after growth for 1 week in a humidified 5% CO2 atmosphere.

[5] = DHA reduction of prodrugs and nitro compounds, HPLC initial rate (Examples 5 and 6); assay type: physicochemical; conditions: 100 μM compound, 1 mM DHA employed (instead of 10 mM DHA), 37° C.
[6] = Chemical activation of tretazicar by DHA in bicarbonate buffer (Example 1); assay type: physicochemical; conditions: 10 mM DHA, 100 μM tretazicar, 0.1M sodium bicarbonate buffer, 1 ml
Protocol: as §1, with “DHA” for “test compound (compound of formula I)”, “0.1M” for “0.1 M”, “pH10,” for “pH 10,”, “ml.” for “mL.”, “(42×150” for “(4.2×150”, “mL/min).” for “ml/min).”

[7] = humans, phase I; cited from earlier work
DNA = conditions: cited from earlier work
[8] = bioactivated versus non-activated; cited from earlier work

Molecule: O=CC(O)CO (racemic) [D,L-Glyceraldehyde]
- Rate of NADP+ reduction [1]: 0.015 change in A350 per minute
- Initial Rate of tretazicar reduction, pH 9 [2]: 0.53 nmoles/min/mL
- Initial Rate of tretazicar reduction, pH 10 [2]: 0.62 nmoles/min/mL

Molecule: CC(=O)C(C)O (stereo not shown) [3-hydroxy-2-butanone]
- Initial Rate of tretazicar reduction, pH 9 [2]: 0.034 nmoles/min/mL
- Initial Rate of tretazicar reduction, pH 10 [2]: 0.184 nmoles/min/mL

Molecule: O=C(O)c1cc([N+](=O)[O-])c(Cl)c([N+](=O)[O-])c1 [4-chloro-3,5-dinitrobenzoic acid]
- Initial Rate, pH 8 [3]: 0.195 nmoles/min/mL
- Initial Rate, pH 9 [3]: 1.293 nmoles/min/mL
- Initial Rate, pH 10 [3]: 1.727 nmoles/min/mL
- Initial Rate, pH 10.6 [3]: 2.442 nmoles/min/mL

Molecule: O=[N+]([O-])c1ccc(CO)cc1 [4-nitrobenzyl alcohol]
- Initial Rate, pH 8 [3]: < 0.01 nmoles/min/mL
- Initial Rate, pH 9 [3]: < 0.01 nmoles/min/mL
- Initial Rate, pH 10 [3]: 0.105 nmoles/min/mL
- Initial Rate, pH 10.6 [3]: 0.087 nmoles/min/mL

Molecule: Cc1cc(Cl)c([N+](=O)[O-])cc1[N+](=O)[O-] [5-chloro-2,4-dinitrotoluene]
- Initial Rate, pH 8 [3]: 0.132 nmoles/min/mL
- Initial Rate, pH 9 [3]: 0.499 nmoles/min/mL
- Initial Rate, pH 10 [3]: 0.690 nmoles/min/mL
- Initial Rate, pH 10.6 [3]: 1.703 nmoles/min/mL

Molecule: O=CC(O)C(O)CO (stereo not drawn) [D(−)-Erthrose]
- Rate of NADP+ reduction [1]: 0.004 change in A350 per minute
- Initial Rate of tretazicar reduction, pH 9 [2]: < 0.01 nmoles/min/mL
- Initial Rate of tretazicar reduction, pH 10 [2]: 0.28 nmoles/min/mL

Molecule: O=C(CO)CO [Dihydroxyacetone (dimer), 1,3-dihydroxy-2-propanone]
- Rate of NADP+ reduction [1]: 0.063 change in A350 per minute
- Initial Rate of tretazicar reduction, pH 9 [2]: 0.92 nmoles/min/mL
- Initial Rate of tretazicar reduction, pH 10 [2]: 0.69 nmoles/min/mL

Molecule: Cn1c(/C=C/CO)c(CO)c2c1C(=O)C=C(N1CC1)C2=O [E09, 3-[5-aziridinyl-4,7-dioxo-3-hydroxymethyl-1-methyl-1H-indol-2-yl]-prop-β-ene-α-ol]
- INITIAL RATE, 0.1 M PO4, pH7.5 [3]: 0.272 nmoles/min/mL
- INITIAL RATE, 0.1 M PO4, pH8 [3]: 0.605 nmoles/min/mL
- cytotoxic effect (percentage survival of V79 cells) on addition of DHA [4]: greatly enhanced

Molecule: O=C(CO)[C@H](O)[C@@H](O)CO [L-Xylulose]
- Rate of NADP+ reduction [1]: 0.003 change in A350 per minute
- Initial Rate of tretazicar reduction, pH 9 [2]: < 0.01 nmoles/min/mL
- Initial Rate of tretazicar reduction, pH 10 [2]: 0.28 nmoles/min/mL

Molecule: Cc1ncc([N+](=O)[O-])n1CCO [Metronidazole, 2-methyl-5-nitro-1H-imidazole-1-ethanol]
- INITIAL RATE, 0.1 M PO4, pH7.5 [3]: 0.131 nmoles/min/mL
- INITIAL RATE, 0.1 M PO4, pH8 [3]: 0.369 nmoles/min/mL
- Initial Rate, pH 8 [3]: 0.369 nmoles/min/mL
- Initial Rate, pH 9 [3]: 0.890 nmoles/min/mL
- Initial Rate, pH 10 [3]: 1.239 nmoles/min/mL
- Initial Rate, pH 10.6 [3]: 0.807 nmoles/min/mL

Molecule: COCC(O)Cn1ccnc1[N+](=O)[O-] (stereo not shown) [Misonidazole]
- INITIAL RATE, 0.1 M PO4, pH7.5 [3]: 0.221 nmoles/min/mL
- INITIAL RATE, 0.1 M PO4, pH8 [3]: 1.922 nmoles/min/mL
- Initial Rate, pH 8 [3]: 1.922 nmoles/min/mL
- Initial Rate, pH 9 [3]: 1.851 nmoles/min/mL
- Initial Rate, pH 10 [3]: 3.180 nmoles/min/mL

Molecule: CO[C@@]12[C@H](COC(N)=O)C3=C(C(=O)C(C)=C(N)C3=O)N1C[C@@H]1N[C@@H]12 [Mitomycin C]
- INITIAL RATE, pH7.5 column, (PBS) ([3]; PBS): 1.524 (PBS) nmoles/min/mL
- Initial Rate, pH 7 ([3]; pH 7): 1.019 nmoles/min/mL
- Initial Rate, pH 9 [3]: Too fast to measure
- INITIAL RATE, 0.1 M PO4, pH8, 1 mM DHA ([5]; pH8): 0.052^a nmoles/min/mL
- Initial Rate, pH 8, 1 mM DHA ([5]; pH8): 0.052 nmoles/min/mL
- Initial Rate, pH 8.5, 1 mM DHA ([5]; pH 8.5): 0.103 nmoles/min/mL

Molecule: NC(=O)N/N=C/c1ccc([N+](=O)[O-])o1 [Nitrofurazone, 2-[(5-nitro-2-furanyl)methylene]hydrazinecarboxamide]
- INITIAL RATE, 0.1 M PO4, pH7.5 [3]: 0.177 nmoles/min/mL
- INITIAL RATE, 0.1 M PO4, pH8 [3]: 0.203 nmoles/min/mL
- Initial Rate, pH 7.5 [3]: 0.177 nmoles/min/mL
- Initial Rate, pH 8 [3]: 0.203 nmoles/min/mL
- Initial Rate, pH 8.5 [3]: 0.260 nmoles/min/mL
- Initial Rate, pH 9 [3]: 2.390 nmoles/min/mL
- Initial Rate, pH 10 [3]: 3.789 nmoles/min/mL

Molecule: O=[N+]([O-])c1nccn1CC(O)CN1CC1 (stereo not shown) [RSU-1069/RB-1645, 1-(1-aziridinyl)-3-(2-nitro-1-imidazolyl)-2-propanol]
- INITIAL RATE, 0.1 M PO4, pH7.5 [3]: <0.01 nmoles/min/mL
- INITIAL RATE, 0.1 M PO4, pH8 [3]: 2.57 nmoles/min/mL

Molecule: Nc1n[n+]([O-])c2ccccc2[n+]1[O-] [Tirapazamine, 3-amino-1,2,4-benzotriazine-1,4-dioxide]
- INITIAL RATE, 0.1 M PO4, pH7.5 [3]: 0.523 nmoles/min/mL
- INITIAL RATE, 0.1 M PO4, pH8 [3]: 0.512 nmoles/min/mL
- Initial Rate, pH 7.5 [3]: 0.523 nmoles/min/mL
- Initial Rate, pH 8 [3]: 0.512 nmoles/min/mL
- Initial Rate, pH 8.5 [3]: 0.639 nmoles/min/mL
- Initial Rate, pH 9 [3]: 3.503 nmoles/min/mL
- Initial Rate, pH 10 [3]: 4.209 nmoles/min/mL

Molecule: NC(=O)c1cc(N2CC2)c([N+](=O)[O-])cc1[N+](=O)[O-] [Tretazicar, 5-(aziridin-1-yl)-2,4-dinitrobenzamide]
- INITIAL RATE, 0.1 M PO4, pH7.5 [3]: <0.01 nmoles/min/mL
- INITIAL RATE, 0.1 M PO4, pH8 [3]: 0.158 nmoles/min/mL
- Initial Rate, pH 8 [3]: 0.158 nmoles/min/mL
- Initial Rate, pH 9 [3]: 0.933 nmoles/min/mL
- Initial Rate, pH 10 [3]: 1.248 nmoles/min/mL
- Initial Rate, pH 10.6 [3]: 5.801 nmoles/min/mL
- rate of tretazicar reduction by DHA at pH 9 ([6]; pH 9, 37° C.): 0.92 nmol/min
- rate of tretazicar reduction by DHA at pH 10 ([6]; pH 10, 37° C.): 0.69 nmol/min
- MTD [7]: 37.5 mg/m^2
- dose safely administered without any significant toxicity [7]: up to 24 mg/m^2
- increase in the amount of DNA-bound drug (DNA; Walker cells compared to cells which cannot reduce tretazicar (Friedlos et al, 1992)): 10 fold
- interstrand crosslinks as share of total lesions / total DNA reactions (DNA; literature values (Friedlos et al, 1992; Knox et al, 1986)): up to 70%
- dose modification resulting from bioactivation (increase in cytotoxicity) [8]: up to 100,000 fold

Molecule: Glycolaldehyde [Glycolaldehyde dimer]
- Rate of NADP+ reduction [1]: 0.029 change in A350 per minute
- Initial Rate of tretazicar reduction, pH 9 [2]: 0.18 nmoles/min/mL
- Initial Rate of tretazicar reduction, pH 10 [2]: 0.14 nmoles/min/mL

Molecule: Hydroxyacetone [Hydroxyacetone (acetol)]
- Rate of NADP+ reduction [1]: 0.003 change in A350 per minute
